Measured values: patent US9988381B2, “Five-member-heterocycle fused pyridine compounds, method of producing the same, and use thereof” (SHANGHAI INSTITUTE OF MATERIA MEDICA, CHINESE ACADEMY OF …, priority 2013, dated 2018)
Where two headings read alike, the source gives them in different places.

Columns and labels:
MKN45 cell = assay: Test III: growth inhibition of gastric tumor cell MKN45 (SRB); format: cell-based; details: Homo sapiens; for inhibition at 0.2 µM: MKN-45, read-out: Cell proliferation inhibition rate at 200 nM (%), MKN45, 200 nM
Procedure: (§1) Assays on the growth inhibition of the compounds against gastric tumor cell MKN45, non-small cell carcinoma EBC-1 cell (both are MET persistent activated cell lines due to MET gene amplification, and are Met dependent tumor cell lines, MKN45 cell was purchased from JCRB, Japan, EBC-1 cell was purchased from ATCC, USA) were detected using sulforhodamine B (SRB) staining. […] After incubation with compound for 72 hours, the incubation was terminated, adherent cells were retained and medium was discarded, 10% (w/v) trichloroacetic acid (100 μL pre well) was added, the cells were fixed at 4° C. for 1 hour, then rinsed with distilled water for 5 times, after dried at room temperature, SRB solution (4 mg/mL, dissolved in 1% glacial acetic acid) was added at 100 μL per well, incubated and stained at room temperature for 15 minutes, then rinsed with 1% glacial acetic acid for 5 times to remove any unbound SRB, dried at room temperature, then 10 mM Tris solution was added at 100 μL per well, the optical density (OD) value at 515 nm was measured using VERSMax microplate reader.
(§2) Experiments were conducted in duplicates. IC50 value was calculated by fitting the data for a four parameter fit using inhibition curve, the results are shown below in Table 2.

[1] = target: T1, c-Met kinase domain recombinant protein (Homo sapiens, UniProt P08581); assay: biochemical; details: for inhibition at 0.1 µM: read-out: Average inhibition rate at 0.1 μM (%); for inhibition at 1 µM: read-out: Average inhibition rate at 1 μM (%); for inhibition at 10 µM: read-out: Average inhibition rate at 10 μM (%)
T1 construct: 50 μL diluted solution of c-Met kinase domain recombinant protein in reaction buffer was added to initiate the reaction
In short: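 IC50 came from a four-parameter fit of inhibition rates measured by anti-phosphotyrosine (PY99/HRP) ELISA at 490 nm. The reaction ran 1 hour at 37° C with 5 μM ATP, c-Met kinase domain protein and Poly(Glu,Tyr)4:1-coated wells, in HEPES pH 7.4 buffer containing MgCl2, MnCl2, Na3VO4 and DTT.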

[2] = target: T1, c-Met kinase domain recombinant protein; assay: biochemical; details: read-out: Inhibition rate at 10 μM (%)
In short: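 Recombinant c-Met kinase domain phosphorylated immobilised Poly(Glu,Tyr)4:1 for 1 h at 37 °C in 50 mM HEPES pH 7.4, 50 mM MgCl2, 0.5 mM MnCl2, 0.2 mM Na3VO4, 1 mM DTT with ATP. Product measured by anti-phosphotyrosine PY99 ELISA (HRP, 490 nm), giving percent inhibition; ATP-free wells served as control.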

EBC-1 cell = assay: Test III: growth inhibition of non-small cell carcinoma EBC-1 cell (SRB); format: cell-based; details: Homo sapiens, EBC-1, 72 h; for inhibition at 0.2 µM: read-out: Cell proliferation inhibition rate at 200 nM (%); for inhibition at 1 µM: read-out: Cell proliferation inhibition rate at 1 μM (%)
Procedure: as §1, §2

[3] = system: human lung cancer EBC-1 xenograft; assay: Test IV: human non-small cell lung cancer EBC-1 xenograft growth in nude mice; format: in vivo
Procedure: EBC-1 cells were implanted subcutaneously in the right axilla of nude mice at 5×10^6 cells per mouse, xenograft developed thereby was passaged in nude mice for 3 generations prior to use. Tumor tissue at rapid growth phase was taken, minced under sterile condition into pieces of about 1.5 mm^3, then implanted subcutaneously in the right axilla of nude mice.
Xenografted tumor diameters were measured twice per week, and body weights of the mice were measured at the same time. Tumor Volume (TV) was calculated by the following equation: TV=1/2×a×b^2, wherein a, b refers to the length and width, respectively. Based on the measurement, Relative Tumor Volume (RTV) was calculated by the following equation: RTV=Vt/V0, wherein V0 is the tumor volume measured when divided for administration (i.e., do), Vt is the tumor volume measured at each timepoint.

[4] = MKN-45, 72 h, read-out: Cell proliferation inhibition rate at 1 μM (%)
[5] = MKN-45, read-out: Cell proliferation inhibition rate at 1 μM (%), MKN45, 1 μM, 72 hours

T1 sequence (P08581 1078-1345 limits assumed): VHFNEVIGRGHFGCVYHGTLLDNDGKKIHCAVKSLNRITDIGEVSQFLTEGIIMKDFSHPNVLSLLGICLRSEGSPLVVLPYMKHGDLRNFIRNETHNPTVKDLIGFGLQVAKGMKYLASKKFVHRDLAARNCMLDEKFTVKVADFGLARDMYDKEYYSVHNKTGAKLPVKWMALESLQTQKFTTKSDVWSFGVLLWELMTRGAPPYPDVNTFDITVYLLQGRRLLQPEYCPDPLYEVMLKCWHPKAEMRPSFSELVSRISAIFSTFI

Cn1cc(-c2cnc3cnn(S(=O)(=O)c4cnc5ccc(-c6ccsc6)cn45)c3c2)cn1 [Example 72, 1-{[6-(3-thiophene)-imidazo[1,2-a]pyridine]-3-sulfonyl}-6-[(1-methyl)-4-pyrazolyl]-1-H-pyrazolo[4,3-b]pyridine]
inhibition at 1 µM (MKN45 cell; [4]): 72.8%
IC50 [1]: 0.04 ± 0.04 nM
inhibition at 0.1 µM [1]: 70.1%
inhibition at 1 µM [1]: 80.3%
inhibition at 10 µM [1]: 76.5%
inhibition at 10 µM [2]: 80.9%

CN(C)C(=O)c1ccc(-c2ccc3ncc(S(=O)(=O)n4ncc5ncc(-c6cnn(C)c6)cc54)n3c2)cc1 [Example 73, 1-{[6-(4-dimethylaminocarbonylphenyl)-imidazo[1,2-a]pyridine]-3-sulfonyl}-6-[(1-methyl)-4-pyrazolyl]-1-H-pyrazolo[4,3-b]pyridine]
inhibition at 1 µM (MKN45 cell; [5]): 14.4%
inhibition at 0.1 µM [1]: 78%
inhibition at 1 µM [1]: 72.8%
inhibition at 10 µM [1]: 76.9%
inhibition at 10 µM [2]: 59.6%

Cn1cc(-c2cnc3cnn(S(=O)(=O)c4cnc5ccc(-c6cnn(C7CCN(C(=O)OC(C)(C)C)CC7)c6)cn45)c3c2)cn1 [Example 76, 1-{(6-{{1-[(1-t-butoxycarbonyl)-4-piperidinyl]}-4-pyrazolyl}-imidazo[1,2-a]pyridine)-3-sulfonyl}-6-[(1-methyl)-4-pyrazolyl]-1-H-pyrazolo[4,3-b]pyridine]
inhibition at 1 µM (MKN45 cell; [5]): 14.9%
inhibition at 0.1 µM [1]: 78%
inhibition at 1 µM [1]: 75.5%
inhibition at 10 µM [1]: 78.3%
inhibition at 10 µM [2]: > 76.3%

Cn1cc(-c2cnc3cnn(S(=O)(=O)c4cnc5ccc(-c6ccc(F)cc6)cn45)c3c2)cn1 [Example 81, 1-{[6-(4-fluorophenyl)-imidazo[1,2-a]pyridine]-3-sulfonyl}-6-[(1-methyl)-4-pyrazolyl]-1-H-pyrazolo[4,3-b]pyridine]
inhibition at 1 µM (MKN45 cell; [5]): 24.7%
inhibition at 0.1 µM [1]: 72.9%
inhibition at 1 µM [1]: 73.6%
inhibition at 10 µM [1]: 80.2%
inhibition at 10 µM [2]: > 68.7%

Cc1ccc(-c2ccc3ncc(S(=O)(=O)n4ncc5ncc(-c6cnn(C)c6)cc54)n3c2)cc1 [Example 90, 1-{[6-(4-methylphenyl)-imidazo[1,2-a]pyridine]-3-sulfonyl}-6-[(1-methyl)-4-pyrazolyl]-1-H-pyrazolo[4,3-b]pyridine]
inhibition at 1 µM (MKN45 cell; [5]): 17.6%
inhibition at 0.1 µM [1]: 69%
inhibition at 1 µM [1]: 83%
inhibition at 10 µM [1]: 81.1%
inhibition at 10 µM [2]: > 72.2%

Cn1cc(-c2cnc3cnn(S(=O)(=O)c4cnc5ccc(-c6ccc(CN7CCOCC7)cc6)cn45)c3c2)cn1 [Example 91, 1-{[6-(4-morpholinomethylphenyl)-imidazo[1,2-a]pyridine]-3-sulfonyl}-6-[(1-methyl)-4-pyrazolyl]-1-H-pyrazolo[4,3-b]pyridine]
inhibition at 1 µM (MKN45 cell; [5]): 72.9%
inhibition at 0.1 µM [1]: 77.3%
inhibition at 1 µM [1]: 85.5%
inhibition at 10 µM [1]: 74.1%
inhibition at 10 µM [2]: > 69.4%

COc1ccccc1-c1ccc2ncc(S(=O)(=O)n3ncc4ncc(-c5cnn(C)c5)cc43)n2c1 [Example 97, 1-{[6-(2-methoxyphenyl)-imidazo[1,2-a]pyridine]-3-sulfonyl}-6-[(1-methyl)-4-pyrazolyl]-1-H-pyrazolo[4,3-b]pyridine]
inhibition at 1 µM (MKN45 cell; [4]): 67.8%
IC50 [1]: 0.5 ± 0.1 nM
inhibition at 0.1 µM [1]: 51.7%
inhibition at 1 µM [1]: 62.7%
inhibition at 10 µM [1]: 65.5%
inhibition at 10 µM [2]: > 63.8%

Cn1cc(-c2cnc3cnn(S(=O)(=O)c4cnc5ccc(-c6ccc(F)nc6)cn45)c3c2)cn1 [Example 99, 1-{[6-(2-fluoro-5-pyridinyl)-imidazo[1,2-a]pyridine]-3-sulfonyl}-6-[(1-methyl)-4-pyrazolyl]-1-H-pyrazolo[4,3-b]pyridine]
inhibition at 0.2 µM (MKN45 cell; 72 hours): 48.5%
inhibition at 1 µM (MKN45 cell; [5]): 67.9%
inhibition at 0.1 µM [1]: 55.5%
inhibition at 1 µM [1]: 66.2%
inhibition at 10 µM [1]: 71.8%
inhibition at 10 µM [2]: > 73.3%

Cn1cc(-c2cnc3cnn(S(=O)(=O)c4cnc5ccc(-c6cccc(C#N)c6)cn45)c3c2)cn1 [Example 100, 1-{[6-(3-cyanophenyl)-imidazo[1,2-a]pyridine]-3-sulfonyl}-6-[(1-methyl)-4-pyrazolyl]-1-H-pyrazolo[4,3-b]pyridine]
inhibition at 0.2 µM (MKN45 cell; 72 hours): 63.8%
inhibition at 1 µM (MKN45 cell; [5]): 66.6%
inhibition at 0.1 µM [1]: 83.7%
inhibition at 1 µM [1]: 87.3%
inhibition at 10 µM [1]: 85.4%
inhibition at 10 µM [2]: > 60.4%

CNC(=O)c1ccc(-c2ccc3ncc(S(=O)(=O)n4ncc5ncc(-c6cnn(CCN(C)C)c6)cc54)n3c2)cc1F [Example 102, 1-{(6-(3-fluoro-4-methylaminocarbonylphenyl)-imidazo[1,2-a]pyridine)-3-sulfonyl}-6-[(2-dimethylaminoethyl)-4-pyrazolyl]-1-H-pyrazolo[4,3-b]pyridine]
inhibition at 0.2 µM (MKN45 cell; 72 hours): 63.8%
inhibition at 1 µM (MKN45 cell; [5]): 67.9%
inhibition at 0.1 µM [1]: 73.7%
inhibition at 1 µM [1]: 85.3%
inhibition at 10 µM [1]: 95.4%
inhibition at 10 µM [2]: > 65.5%

CN1CCN(C(=O)c2ccc(-c3cnc4cnn(S(=O)(=O)c5cnc6ccc(-c7cnn(C)c7)cn56)c4c3)cc2)CC1 [Example 142, 1-{(6-[(1-methyl)-4-pyrazolyl]-imidazo[1,2-a]pyridine)-3-sulfonyl}-6-[4-(4-methylpiperazine-1-carbonyl)phenyl]-1-H-pyrazolo[4,3-b]pyridine]
inhibition at 0.2 µM (EBC-1 cell): 92.1%
inhibition at 1 µM (EBC-1 cell): 92.6%
IC50 [1]: 0.5 ± 0.1 nM
inhibition at 0.1 µM [1]: 89.4%
inhibition at 1 µM [1]: 91.3%
TV (mm^3, mean ± SD) d21 ([3]; 50 mg/kg po qd/21): 259 ± 421 ^ mm^3
Weight (g) d21 ([3]; 50 mg/kg po qd/21): 21.0 g
GI (%) ([3]; 50 mg/kg po qd/21, d21): 90.65%
RTV (mean ± SD) ([3]; 50 mg/kg po qd/21, d21): 2.23 ± 3.89
T/C (%) ([3]; 50 mg/kg po qd/21, day 21): 16.91%
TV (mm^3, mean ± SD) d21 ([3]; 100 mg/kg po qd/21): 21 ± 34 mm^3
Weight (g) d21 ([3]; 100 mg/kg po qd/21): 20.9 g
GI (%) ([3]; 100 mg/kg po qd/21, d21): 106.70%
RTV (mean ± SD) ([3]; 100 mg/kg po qd/21, d21): 0.14 ± 0.21
T/C (%) ([3]; 100 mg/kg po qd/21, day 21): 1.05%

CC(C)N1CCC(n2cc(-c3cnc4cnn(S(=O)(=O)c5cnc6ccc(-c7cnn(C)c7)cn56)c4c3)cn2)CC1 [Example 145, 1-{(6-[(1-methyl)-4-pyrazolyl]-imidazo[1,2-a]pyridine)-3-sulfonyl}-6-{(1-[(1-isopropyl)-4-piperidinyl]}-4-pyrazolyl}-1-H-pyrazolo[4,3-b]pyridine]
inhibition at 0.2 µM (EBC-1 cell): 92.4%
inhibition at 1 µM (EBC-1 cell): 92.8%
IC50 [1]: 0.6 ± 0.1 nM
inhibition at 0.1 µM [1]: 90.6%
inhibition at 1 µM [1]: 87.1%
TV (mm^3, mean ± SD) d21 ([3]; 50 mg/kg po qd/21): 36 ± 49 mm^3
Weight (g) d21 ([3]; 50 mg/kg po qd/21): 19.9 g
GI (%) ([3]; 50 mg/kg po qd/21, d21): 106.14%
RTV (mean ± SD) ([3]; 50 mg/kg po qd/21, d21): 0.31 ± 0.50
T/C (%) ([3]; 50 mg/kg po qd/21, day 21): 2.36%
TV (mm^3, mean ± SD) d21 ([3]; 100 mg/kg po qd/21): 8 ± 13 mm^3
Weight (g) d21 ([3]; 100 mg/kg po qd/21): 19.1 g
GI (%) ([3]; 100 mg/kg po qd/21, d21): 107.77%
RTV (mean ± SD) ([3]; 100 mg/kg po qd/21, d21): 0.05 ± 0.09
T/C (%) ([3]; 100 mg/kg po qd/21, day 21): 0.40%
